From patent US7160992B2, “Amino-modified polysaccharides and methods of generating and using same” (Yeda Research and Development Co., Ltd., priority 2003, dated 2007)
“And” between values parts separate entries of the source, which are not always exact repeats. Identical values can stand only once.

Tests used:
TAR RNA = test: Fluorescence anisotropy: RhdRev binding and AAC competition for TAR RNA; parameters: species or system HIV-1; details: for Kd: competition of AACs with RhdRev (10 nM) for TAR RNA (20 nM) binding, 85 mM NaCl; for IC50: competition of AACs with RhdRev for TAR RNA binding; for competition with RhdRev for TAR RNA binding (in words): up to 20 μM of AAC
RRE IIB RNA = test: Fluorescence anisotropy: RhdRev binding and AAC competition for RRE IIB RNA; parameters: species or system HIV-1; details: for Kd: competition of AACs with RhdRev (10 nM) for RRE IIB RNA (20 nM) binding, 85 mM NaCl; for IC50: competition of AACs with RhdRev for RRE IIB RNA binding
CXCR4 = biological target: T1, CXCR4 (Homo sapiens, UniProt P61073); test: Inhibition of anti-CXCR4 mAb 12G5 binding to cells, flow cytometry; format: cell-based; details: for reduction of 12G5 mAb binding to the cells: 10 μM AAC, PM1 cells, 30 min at 4° C.; for inhibition of mAb 12G5 or SDF-1α binding to CXCR4, % of the NeoR6 activity: in comparison to NeoR6
T1 construct: endogenous in cells; host or cells: PM1 cells and PBMC
T1 sequence (P61073 whole entry): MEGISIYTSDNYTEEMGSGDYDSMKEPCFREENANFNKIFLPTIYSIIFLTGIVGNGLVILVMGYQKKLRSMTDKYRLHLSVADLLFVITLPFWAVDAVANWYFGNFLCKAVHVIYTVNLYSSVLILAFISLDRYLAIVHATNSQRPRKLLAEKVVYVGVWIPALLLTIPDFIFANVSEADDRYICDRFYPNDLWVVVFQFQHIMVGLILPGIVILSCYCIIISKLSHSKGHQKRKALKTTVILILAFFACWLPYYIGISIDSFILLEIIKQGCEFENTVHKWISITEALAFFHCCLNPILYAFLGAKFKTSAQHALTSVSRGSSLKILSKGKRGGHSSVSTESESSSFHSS
Experimental: FIGS. 11a–d are graphs depicting the binding of AACs to CXCR4 in the presence of anti CXCR4 antibody (12G5). PM1 cells were incubated with PE-conjugated isotype control mAb, PE-anti CXCR4 conjugated mAb (12G5) alone, or in the presence of the indicated AACs for 30 min at 4° C. The cells were then washed twice with PBS and analyzed by flow cytometry. The MFI values are shown in parenthesis.
Interaction of AACs with CXCR4 was determined by flow cytometry (FACScan, Becton Dickinson) as described recently (Litovchick et al., 2001, supra). Briefly, 0.5×10^6 cells were washed in ice-cold PBS containing 0.1% sodium azide (wash buffer) and incubated at 4° C. with anti-CXCR4 mAb, 12G5 (PharMingen, San Diego, Calif.) conjugated to phycoerithrine (PE), in the absence or presence of different concentrations of the AACs. After 30 min of incubation, the cells were washed with ice-cold wash buffer and fixed in PBS containing 1% paraformaldehyde. Non-specific fluorescence was assessed by using isotype-matched control. For each sample 10,000 events were acquired. Data were analyzed and processed using CellQuest™ software (Becton Dickinson).

MT-2 cells = test: Cellular uptake competition of AACs with NeoR6-FITC, flow cytometry; format: cell-based; details: for competition with NeoR6-FITC uptake (in words): 100 fold excess of non-labeled AAC; for inhibition of NeoR6-FITC uptake, less affinity than NeoR6: 100 fold excess of non-labeled AAC over 0.5 μM NeoR6-FITC
Experimental: Following 15 minutes of incubation at room temperature, the cells were washed twice with ice-cold PBS and fixed in PBS containing 1% paraformaldehyde. Fluorescence was analyzed using flow cytometry.
After 5 or 15 min of incubation at room temperature, the cells were washed twice with ice-cold PBS and fixed in PBS containing 1% paraformaldehyde. The fluorescence was then analyzed by flow cytometry (FACScan, Becton Dickinson Imunocytometry Systems, San Jose, Calif., USA). For each sample 10,000 events were acquired. Data were analyzed and processed.

[1] = test system: U38, PM1, H9 cells and PBMC; test: Cellular uptake of AAC-FITC fluorescent probes, fluorescence microscopy; format: cell-based; details: 0.5 μM, 10 minutes of incubation
Experimental: Images were obtained using a Zeiss Axiophot microscope.
Cellular uptake using AAC fluorescent probes—U38, PM1, H9 cells and PBMC(10^5) were incubated for 20 minutes at room temperature in 100 μl RPMI 1640 medium (Gibco-BRL, Life-Technologies, UK) including AAC-FITC derivatives as indicated at a final concentration of 0.5 μM. Cells were washed twice, resuspended in 100 μl medium and analyzed with a Zeiss Axiophot fluorescent microscope.

cMAGI cells = test: Competition between FITC-labelled AACs and RANTES; format: cell-based; details: 2.5 mM RANTES
Experimental: Competition between FITC labelled AACs (1 mM) and RANTES (2.5 mM, Pepro Tech Inc., New Jersey, USA) was effected in 2×10^5 cMAGI cells. Following 30 min of incubation, cells were washed with ice-cold wash buffer and analysed by flow cytometry as described above.

PM1 cells = test: Inhibition of FITC-labeled AAC uptake by SDF-1α, flow cytometry; format: cell-based; details: for MFI of FITC-AAC uptake: background MFI of 10; for inhibition of cell uptake by SDF-1α: PM1 cells
Experimental: Following 20 minutes at room temperature the cells were washed twice with PBS and analyzed by flow cytometry.
Following 30 minutes of incubation, cells were washed with ice-cold wash buffer and analyzed by flow cytometry as described above.

[2] = test system: lymphocytes, PBMC and neurons; details: cited from earlier work
CCR5 = biological target: T2, CCR5 (Homo sapiens, UniProt P51681); details: PHA stimulated peripheral blood lymphocytes; cited from earlier work
T2 construct: in PHA stimulated peripheral blood lymphocytes (PBL); host or cells: PHA stimulated peripheral blood lymphocytes (PBL)
T2 sequence (P51681 whole entry): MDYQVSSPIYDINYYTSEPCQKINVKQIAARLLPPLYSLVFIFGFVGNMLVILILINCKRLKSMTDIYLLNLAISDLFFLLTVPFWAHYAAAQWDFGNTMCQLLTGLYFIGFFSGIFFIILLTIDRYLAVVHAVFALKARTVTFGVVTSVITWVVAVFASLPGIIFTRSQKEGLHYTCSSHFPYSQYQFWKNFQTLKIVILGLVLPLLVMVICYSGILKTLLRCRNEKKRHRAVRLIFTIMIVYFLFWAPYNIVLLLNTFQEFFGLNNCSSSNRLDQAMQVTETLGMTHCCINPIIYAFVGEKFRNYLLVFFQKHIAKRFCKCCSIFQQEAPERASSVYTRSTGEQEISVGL

CD4 = biological target: T3, CD4 (Homo sapiens, UniProt P01730); details: PHA stimulated peripheral blood lymphocytes; cited from earlier work
T3 construct: in PHA stimulated peripheral blood lymphocytes (PBL); host or cells: PHA stimulated peripheral blood lymphocytes (PBL)

SMILES	Kd (TAR RNA)	IC50 (TAR RNA) [nM]	Kd (RRE IIB RNA)	IC50 (RRE IIB RNA) [nM]	reduction of 12G5 mAb binding to the cells (CXCR4) [%]	competition with NeoR6-FITC uptake (in words) (MT-2 cells)	cellular uptake of FITC-labeled AAC by PM1 cells [1]	competition with RhdRev for TAR RNA binding (in words) (TAR RNA)	effect of RANTES on uptake of FITC derivative (cMAGI cells)	inhibition of mAb 12G5 or SDF-1α binding to CXCR4, % of the NeoR6 activity (CXCR4) [%]	inhibition of NeoR6-FITC uptake, less affinity than NeoR6 (MT-2 cells)	MFI of FITC-AAC uptake (PM1 cells; 62.5 nM SDF-1α)	inhibition of cell uptake by SDF-1α (PM1 cells; 125 nM SDF-1α)	MFI of FITC-AAC uptake (PM1 cells; 125 nM SDF-1α)	MFI of FITC-AAC uptake (PM1 cells; 250 nM SDF-1α)	MFI of FITC-AAC uptake (PM1 cells; without SDF-1α)	further results
CC(=O)O.N=C(N)NCCCC(N)C(=O)NCC1OC(OC2C(N)CC(N)C(O)C2O)C(N)C(O)C1O (stereo not shown) [NeamR1, argininamido-neamine conjugate]	> 500 nM	> 500	233 ± 4.5 nM	342 ± 29.5	5	did not compete											
CC(=O)O.N=C(N)NCCCC(N)C(=O)NCC1OC(OC2C(NC(=O)C(N)CCCNC(=N)N)CC(NC(=O)C(N)CCCNC(=N)N)C(O)C2O)C(NC(=O)C(N)CCCNC(=N)N)C(O)C1O (stereo not shown) [NeamR4, Neamine tetra-arginine conjugate]	30 nM and 30.1 nM	82.8 ± 7.7	55 nM and 54.7 nM	119 ± 13.5	60		uptaken by PM1 cells	efficiently competed	did not affect uptake	70	about 50%	56	about 50%	52	50	96	folds less active / times weaker than NeoR6, TAR binding (TAR RNA; ratio of KD to that of NeoR6): 6
CC(=O)O.N=C(N)NCCCC(N)C(=O)NCC1OC(OC2C(CO)OC(OC3C(O)C(N)CC(N)C3OC3OC(CNC(=O)C(N)CCCNC(=N)N)C(O)C(O)C3N)C2O)C(N)C(O)C1O (stereo not shown) [NeoR2, diargininamido-neomycin B conjugate]	> 500 nM	> 500	112 ± 3.7 nM	208 ± 21.1	48					55	about 50%						
CC(=O)O.N=C(N)NCCCC(N)C(=O)NCC1OC(OC2C(CO)OC(OC3C(O)C(N)CC(N)C3OC3OC(CO)C(O)C(O)C3N)C2O)C(N)C(O)C1O (stereo not shown) [ParomR1, argininamido-paramomycin conjugate]	> 500 nM	> 500	254 ± 7.8 nM	407 ± 41	16	did not compete											
CC(=O)O.N=C(N)NCCCC(N)C(=O)NCC1OC(OC2C(CO)OC(OC3C(O)C(NC(=O)C(N)CCCNC(=N)N)CC(NC(=O)C(N)CCCNC(=N)N)C3OC3OC(CO)C(O)C(O)C3NC(=O)C(N)CCCNC(=N)N)C2O)C(NC(=O)C(N)CCCNC(=N)N)C(O)C1O (stereo not shown) [ParomR5, pentaargininamido-paromomycin conjugate]	15 nM and 15.1 nM	34.3 ± 5.7	96 nM and 95.9 nM	149 ± 12.3	81		uptaken by PM1 cells	efficiently competed	did not affect uptake	90	about 50%	83	about 50%	59	53	104	times weaker than NeoR6, RRE IIB binding (RRE IIB RNA; ratio of KD to that of NeoR6): about 4; inhibition of NeoR6-FITC uptake, less efficient than NeoR6 (MT-2 cells; 40 fold excess of non-labeled AAC): about 50%
NC(N)=NCCC[C@H](N)C(=O)NC[C@H]1O[C@H](O[C@H]2C(O)[C@@H](O[C@H]3O[C@H](CO)[C@@H](O)[C@H](NC(=O)[C@@H](N)CCCN=C(N)N)[C@H]3O)[C@H](NC(=O)[C@@H](N)CCCN=C(N)N)C[C@@H]2NC(=O)[C@@H](N)CCCN=C(N)N)[C@H](O)[C@@H](O)[C@@H]1O (stereo partly shown) [R4K]																	accumulation in cells [2]: accumulate in different cell types; inhibition of binding of 2D7, a mAb directed to CCR5 (CCR5): neither R3G nor R4K or NeoR6 inhibit the binding; inhibition of binding of anti CD4 antibody (Leu 3a) (CD4): neither R3G nor R4K or NeoR6 inhibit the binding
